Results on 35 molecules are retold here after article PMC7473865, “Repertoire-scale determination of class II MHC peptide binding via yeast display improves antigen prediction” (Nature Communications, 2020).

Where two headings read alike, the source gives them in different places. Ends that are not written are not given here.

What all share (type): binding
Assay [1] has as its target T1, recombinant HLA-DR402 (HLA-DRA1*01:01, HLA-DRB1*04:02) (Homo sapiens, UniProt P01903+P01911, A100E/A169T/F76Y/K127E/L162R/M171V/N62H/P40V/Q125Y/Q99D/R42H/S133A/S149N/S66Y/V209L/W38E).
T1 construct: poly-histidine (C); made in house; host or cells: High Five (Hi5) insect cells, baculovirus (pAcGP67a)
The assay is described as follows: biochemical.

Assay [2] addresses yeast-displayed HLA-DR401 (Homo sapiens, UniProt P01903+P01911, A100K/A169T/D72E/F76Y/I96L/K127E/L162R/M171V/M61L/P40V/Q125Y/R42H/S133A/S149N/S66Y/V115G/V157M/V209L/W38E). Briefly: Yeast-display randomized peptide library selection and deep sequencing, HLA-DR401. Also noted: key: 1=binder; 0=non-binder.
Assay [3] addresses T2, recombinant HLA-DR401 (HLA-DRA1*01:01, HLA-DRB1*04:01) (Homo sapiens, UniProt P01903+P01911, A100K/A169T/F76Y/I96L/K127E/L162R/M171V/N62H/P40V/Q125Y/R42H/S133A/S149N/S66Y/V115G/V209L/W38E).
T2 construct: poly-histidine (C); made in house; host or cells: High Five (Hi5) insect cells, baculovirus (pAcGP67a)
Briefly: biochemical.

The mark [4] stands for this setting: HLA-DR402, estimated from two-point fluorescence polarization competition, Fig5F, read-out: Estimated IC50.
Where [5] appears, read: SuppFig8C, yeast-display library peptides.
[6] abbreviates: fluorescence polarization peptide competition, HLA-DR401, sheet Fig7, read-out: Measured IC50.

For AACRKHGSSIGWEEG, the IC50 in assay [1] stood at 132 nM.
For `CC[C@H](C)[C@H](NC(=O)[C@H](CCC(=O)O)NC(=O)[C@@H](N)[C@@H](C)O)C(=O)N[C@H](C(=O)N[C@@H](CCCNC(=N)N)C(=O)N[C@@H](CCSC)C(=O)N[C@@H](CCSC)C(=O)N[C@@H](CCC(=O)O)C(=O)N[C@@H](CO)C(=O)N[C@@H](C)C(=O)N[C@@H](CCCNC(=N)N)C(=O)N1CCC[C@H]1C(=O)N[C@@H](CCC(=O)O)C(=O)N[C@@H](CC(=O)O)C(=O)N[C@H](C(=O)O)C(C)C)[C@@H](C)CC`, in assay [1] (setting [4]), the concentration for half-maximal inhibition (IC50) was 83.1 nM.
As for ASKIAFKIVSQEPAG, the IC50 in assay [1] amounted to 27.8 nM.
Same read-out and setting: with AAVTEEKSHLGWEEG the figure was 58.3 nM.
In the case of AALWRHPGHVGWEEG, in assay [1], the concentration for half-maximal inhibition (IC50) was 74.9 nM.
Consider `CC[C@H](C)[C@H](NC(=O)[C@@H]1CCCN1C(=O)[C@H](Cc1ccc(O)cc1)NC(=O)[C@H](CCCCN)NC(=O)[C@H](CCSC)NC(=O)[C@H](C)NC(=O)[C@H](CCSC)NC(=O)[C@H](CCSC)NC(=O)[C@H](Cc1c[nH]c2ccccc12)NC(=O)[C@H](CCCCN)NC(=O)[C@H](CCSC)NC(=O)[C@H](CCCNC(=N)N)NC(=O)[C@H](CC(C)C)NC(=O)[C@H](C)NC(=O)[C@@H]1CCCN1)C(=O)O`, for which the half-maximal inhibitory concentration (IC50) in assay [1] (setting [4]) was 1310 nM.
In the case of NRMVLASTTAKAMEQ, the IC50 in assay [1] (setting [4]) and in assay [1] (read-out: IC50) was under 10 nM each time.
Turning to AAALSTSWLFCSRCGGSGGG, the “label (1=binder, 0=non-binder)” value in assay [2] (Fig6B data set) and in assay [2] (setting [5]) was 0 throughout.
Regarding AAQVDWPTLPMWEEG, the IC50 in assay [1] was 63.6 nM.
The same measure, in the same setting: with AQKIVEWDSRKSKYG the figure was 62 nM.
As for AAADARCSNRSDLMGGSGGG, the “label (1=binder, 0=non-binder)” value in assay [2] (Fig6B data set) and in assay [2] (setting [5]) was 0 each time.
In the case of AAVSDRLPLRGWEEG, the half-inhibitory concentration (IC50) in assay [1] (setting [4]) and in assay [1] (read-out: IC50) was under 10 nM in each case.
For the molecule AAVTNWGCEVGWEEG, the IC50 in assay [1] stood at 136 nM.
For the molecule ASKMRMATPLLMQAG, the half-maximal inhibitory concentration (IC50) is under 10 nM in assay [1] (setting [4]) and 5170 nM in assay [3].
As for AAPRRHANHLGWEEG, the IC50 in assay [1] was determined as 130 nM.
The same measure, in the same setting: the value for AAVREKCDHVGWEEG was 75.5 nM.
In the case of AALTGKLGHRGWEEG, the half-inhibitory concentration (IC50) in assay [1] (setting [4]) and in assay [1] (read-out: IC50) was under 10 nM throughout.
With AAVTERPINLGWEEG, the IC50 in assay [1] was 51.3 nM.
Consider AAAMQRRNPALLLFGGSGGG, for which the “label (1=binder, 0=non-binder)” value in assay [2] (Fig6B data set) and in assay [2] (setting [5]) was 0 in each case.
As to AAEHVWPSLVGWEEG, the IC50 in assay [1] was 25.6 nM.
Regarding `CC[C@H](C)[C@H](NC(=O)CNC(=O)[C@H](CCCNC(=N)N)NC(=O)[C@H](CCCCN)NC(=O)[C@@H](NC(=O)[C@H](CCSC)NC(=O)[C@H](CCCNC(=N)N)NC(=O)[C@@H](NC(=O)[C@H](CC(C)C)NC(=O)[C@H](CCC(=O)O)NC(=O)[C@H](CCSC)NC(=O)[C@@H](NC(=O)[C@H](CCSC)NC(=O)[C@@H](N)[C@@H](C)O)C(C)C)C(C)C)[C@@H](C)CC)C(=O)N[C@@H](CC(N)=O)C(=O)O` [TMVMELVRMIKRGIN], the IC50 in assay [1] (setting [4]) is 870 nM.
In the case of AAACRKRTWLGWEEG, the IC50 in assay [1] (setting [4]) and in assay [1] (read-out: IC50) was under 10 nM in each case.
With AAGRSHRTHEGWEEG, the IC50 in assay [1] came out at 10 nM.
Regarding AAARGALTTQLLAIGGSGGG, the “label (1=binder, 0=non-binder)” value in assay [2] (setting [5]) came to 0.
On to AAAKYRLHVKSGWSGGSGGG, for which, in assay [2] (Fig6B data set), the “label (1=binder, 0=non-binder)” value was found to be 0.
With AATERRPTLMAWEEG, the IC50 in assay [1] (setting [4]) and in assay [1] (read-out: IC50) was under 10 nM in each case.
For `CC[C@H](C)[C@H](NC(=O)[C@H](C)NC(=O)[C@@H](NC(=O)[C@H](C)NC(=O)[C@H](CCCNC(=N)N)NC(=O)[C@H](CCCNC(=N)N)NC(=O)CNC(=O)[C@@H](NC(=O)[C@H](CCSC)NC(=O)[C@@H](NC(=O)[C@H](Cc1ccccc1)NC(=O)[C@H](CCC(=O)O)NC(=O)[C@H](CCC(=O)O)NC(=O)[C@@H](N)Cc1ccc(O)cc1)[C@@H](C)O)C(C)C)[C@@H](C)O)C(=O)N[C@@H](CC(C)C)C(=O)O`, the IC50 in assay [1] (setting [4]) was 4570 nM.
Take VYGWATLVSERSKNGMQRIL: the IC50 in assay [3] (setting [6]) is 245 nM.
Turning to AAANWSSSPDMPLVGGSGGG, the “label (1=binder, 0=non-binder)” value in assay [2] (Fig6B data set) and in assay [2] (setting [5]) was 0 in each case.
As to AGGFKGEQGPKGYNG, in assay [3] (SuppFig6C, fluorescence polarization competition, HLA-DR401, read-out: Measured IC50), the concentration for half-maximal inhibition (IC50) came to 134 nM.
Regarding AALDAHRDHMAWEEG, the concentration for half-maximal inhibition (IC50) in assay [1] (setting [4]) and in assay [1] (read-out: IC50) was under 10 nM throughout.
As for AAANRRPSLLGWEEG, the 50% inhibitory concentration (IC50) in assay [1] (setting [4]) and in assay [1] (read-out: IC50) was under 10 nM in each case.
With LGFVFTLTVPSERGL, in assay [1] (setting [4]), the concentration for half-maximal inhibition (IC50) is 409 nM.
Regarding AAWDPDKTVYGWEEG, in assay [3], the IC50 amounted to 43.9 nM.
Take `CC[C@H](C)[C@H](NC(=O)[C@H](CCCCN)NC(=O)[C@H](CO)NC(=O)[C@@H](NC(=O)CNC(=O)[C@H](CC(N)=O)NC(=O)[C@@H](NC(=O)[C@H](CCCNC(=N)N)NC(=O)[C@@H](NC(=O)[C@H](Cc1ccc(O)cc1)NC(=O)[C@H](CC(C)C)NC(=O)[C@H](Cc1ccccc1)NC(=O)[C@@H](N)CCSC)C(C)C)[C@@H](C)O)[C@@H](C)O)C(=O)N[C@@H](CCCCN)C(=O)N[C@@H](CCSC)C(=O)N[C@@H](CCCCN)C(=O)N[C@@H](Cc1c[nH]c2ccccc12)C(=O)NCC(=O)N[C@@H](CCSC)C(=O)N[C@@H](CCC(=O)O)C(=O)O`: the IC50 in assay [3] (setting [6]) is 6100 nM.
